Values quoted from earlier work as cited in patent US20240368063A1, “PREPARATION METHOD, IN[…], AND SYNTHESIS METHOD FOR A CLASS OF ANTHRACENE-DERIVED TOXINS IN ORGANIC CHEMISTRY” (WUYAN PHARMACEUTICAL TECHNOLOGY (SHANGHAI) CO., LTD, priority 2022, published 2024).

Tests used:
[1] = test system: topoisomerase II; settings: at a concentration of 100 μM
[2] = test system: human tumor cell lines; settings: various tumor cell lines, including cells resistant to anthracyclines

COc1cccc2c1C(=O)c1c(O)c3c(c(O)c1C2=O)C[C@@](O)(C(=O)CO)C[C@@H]3O[C@H]1C[C@H]2[C@H](O[C@@H]3[C@@H](OC)OCCN32)[C@H](C)O1 [PNU-159682]
inhibition of the activity of topoisomerase II [1]: weakly inhibits
cytotoxicity compared to anthracyclines [2]: three orders of magnitude higher cytotoxicity
